{
  "source": "patent US20250361469A1",
  "about": "“Lymph Node on a Chip Device and Method” (New York University, priority 2024, published 2025)",
  "key": {"[1]": {"test_system": "DCs and T cells in LN chip", "experiment": "OVA I model antigen initiating adaptive immune process in the LN chip", "type": "cell-based, human"}, "[2]": {"test_system": "DCs and FRCs", "experiment": "CCL19 and CCL21 secretion by DCs and FRCs in paracortical area of LN chip under TNF-α (ELISA)", "type": "cell-based, human", "conditions": "inflammatory conditions affected by TNF-α"}},
  "data": [
    {"substance": "Ovalbimin [OVA I, model antigen (Sigma Aldrich) to initiate the adaptive immune process in the LN chip]", "values": [
      {"measurement": "DC maturation (imDCs to mDCs)", "setting": "[1]; OVA I as model antigen in LN chip", "result": "transformed into mDCs"},
      {"measurement": "T cell activation", "setting": "[1]; OVA I-induced mDCs vs imDCs", "result": "enhanced"},
      {"measurement": "T cell migration", "setting": "[1]; OVA I-induced mDCs vs imDCs", "result": "enhanced"},
      {"measurement": "T cell proliferation", "setting": "[1]; OVA I-induced mDCs vs imDCs", "result": "enhanced"}
    ]},
    {"substance": "TNF-α", "values": [
      {"measurement": "secretion of CCL19 by DCs and FRCs", "setting": "[2]", "result": "increases"},
      {"measurement": "secretion of CCL21 by DCs and FRCs", "setting": "[2]", "result": "increases"}
    ]}
  ]
}
